The values that follow come from patent US11834489B2 (priority 2017, dated 2023).

Structures are written as SMILES.

One assay concerns the target β2AR-Gs complex (Homo sapiens, UniProt P07550, C265A/C327S/C341L/C378A/C406A/C77V/L266C/N148C). In kind it is biochemical. To be noted: normalized to adrenaline.
The target in assay [1] is Cy3B*/Cy7*-labelled β2Δ6-N148C/L266C with Gs(GDP) (Homo sapiens, UniProt P07550, C265A/C327S/C341L/C378A/C406A/C77V/L266C/N148C). The class given is biochemical. The note with it: transition rate from high- to low-FRET states; saturating ligand, 30 μM GDP, Gs titration.
In assay [2] the target is labelled β2AR and biotinylated Gs (Homo sapiens, UniProt P07550, C265A/C327S/C341L/C378A/C406A/C77V/L266C/N148C). The class given is biochemical. To be noted: mean ± s.e.m.
A further assay concerns β2AR. To be noted: compared to salbutamol, reference 27; cited from earlier work.

Turning to `CNCC(O)c1ccc(O)c(O)c1` (centres unmarked) [ADR, adrenaline], the η2 on β2AR-Gs complex (apparent EC50 for GDP binding) is 1.0. Moreover, the η1 on β2AR-Gs complex (product of apparent kon and khigh→low) came to 1.0. The molecule also showed a khigh→low in assay [1] of 0.7 s⁻¹. The “Lifetime, Biotin-Gs-immobilized, +GDP” value in assay [2] (after addition of 30 μM GDP) is 11.8 ± 1.2 s. In addition, the “Lifetime, Biotin-Gs-immobilized, +GTP” value in assay [2] (after addition of 100 μM GTP) turned out to be 6.4 ± 0.1 s. The “Lifetime, M1-immobilized” value in assay [2] (biotin-M1-Fab-immobilized β2AR in the absence of Gs) was determined as 13.2 ± 3.4 min. Further, in assay [2] (nucleotide-free state), the “Lifetime, Biotin-Gs-immobilized, GNP-free” value worked out at 11.2 ± 5.1 min. In the assay with β2AR, the “extent of [3H]GDP release” value was “greater extent of [^3H]GDP release”.
